Results as given in patent publication US20260041620A1, “NOVEL AMINO ACID BASED SALTS, COMPOSITIONS AND METHODS FOR TREATING SKIN AND IMPROVING SKIN REJUVENATION AND LONGEVITY” (Sytheon Ltd, priority 2023, published 2026).
Like-named read-outs stand apart in the source and are kept apart here.

How the values were obtained:
[1] = biological target: T1, HDAC 11 (Homo sapiens, UniProt Q96DB2); test: HDAC 11 fluorogenic assay kit; format: biochemical
T1 construct: purchased BPS Biosciences 50687
T1 sequence (Q96DB2 1-347): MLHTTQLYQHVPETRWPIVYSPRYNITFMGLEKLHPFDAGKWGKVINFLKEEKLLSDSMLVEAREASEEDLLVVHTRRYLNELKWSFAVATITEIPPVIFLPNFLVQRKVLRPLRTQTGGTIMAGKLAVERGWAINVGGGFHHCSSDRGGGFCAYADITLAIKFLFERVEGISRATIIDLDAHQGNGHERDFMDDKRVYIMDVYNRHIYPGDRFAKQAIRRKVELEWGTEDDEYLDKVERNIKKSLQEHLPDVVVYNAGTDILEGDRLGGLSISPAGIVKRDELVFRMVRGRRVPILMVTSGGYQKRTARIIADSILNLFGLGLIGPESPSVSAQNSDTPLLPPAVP
Experimental: (§1) Test materials were stored at room temperature and stock solutions were prepared at 20 mg/ml in DMSO. Further dilutions were made in sterile distilled water immediately before being added to the reaction mixture containing a substrate, and the reaction was triggered by the addition of purified HDAC enzymes, Double distilled water was the negative control and trichostatin (1.5 ug/ml) was used as a positive control for validation of each study. The test procedure was as directed in the assay kits. The products of the reactions were measured by fluorometry at ex/em 350/450 nm using multi-well plate fluorometer Cytofluor 4000 (Applied Biosystem, Foster City, CA) or using SpectraMax i3× Multi-Mode Detection Platform from Molecular Devices (Sunnyvale, CA).
(§2) Statistical significance was assessed with a two-tail Student test. Deviations of ≤20% as compared to water control with p values below 0.05 were considered statistically significant.

[2] = biological target: T2, MAGL (Homo sapiens, UniProt Q99685); test: MAGL inhibitory assay; format: biochemical
T2 construct: purchased Cayman 10007812
T2 sequence (Q99685 1-303): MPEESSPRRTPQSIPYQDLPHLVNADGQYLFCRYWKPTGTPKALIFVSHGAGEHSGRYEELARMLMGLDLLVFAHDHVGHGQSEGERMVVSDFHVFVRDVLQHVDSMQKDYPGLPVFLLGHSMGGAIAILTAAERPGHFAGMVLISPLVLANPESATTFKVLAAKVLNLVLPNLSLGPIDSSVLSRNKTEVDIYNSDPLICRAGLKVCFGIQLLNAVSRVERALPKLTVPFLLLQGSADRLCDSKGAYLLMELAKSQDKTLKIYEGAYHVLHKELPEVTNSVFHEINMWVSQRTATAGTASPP
Experimental: Each study was performed in duplicate and the results averaged.
The final concentration in each well was 10 μl of sample, 5.6 μM MAGL (Cayman Catalog #10007812) and 23.6 μM 2-Arachidonoyl Glycerol (Cayman catalog #62160).

[3] = biological target: HDAC2 (Homo sapiens, UniProt Q92769)
Chain of HDAC2 (Q92769 whole entry): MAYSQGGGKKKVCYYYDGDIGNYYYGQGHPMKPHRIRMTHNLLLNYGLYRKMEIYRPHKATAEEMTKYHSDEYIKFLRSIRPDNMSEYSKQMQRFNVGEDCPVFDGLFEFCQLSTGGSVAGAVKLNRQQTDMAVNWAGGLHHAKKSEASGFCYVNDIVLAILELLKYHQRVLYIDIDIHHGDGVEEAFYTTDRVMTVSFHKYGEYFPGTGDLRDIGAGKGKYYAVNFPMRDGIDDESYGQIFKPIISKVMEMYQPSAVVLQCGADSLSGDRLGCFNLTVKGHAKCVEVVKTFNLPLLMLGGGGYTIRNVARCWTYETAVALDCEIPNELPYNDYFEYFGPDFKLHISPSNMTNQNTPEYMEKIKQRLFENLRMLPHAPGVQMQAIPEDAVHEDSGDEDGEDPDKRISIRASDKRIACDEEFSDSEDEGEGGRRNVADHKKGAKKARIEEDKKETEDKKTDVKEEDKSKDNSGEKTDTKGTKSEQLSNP
Experimental: as §1, §2

[4] = biological target: HDAC 5 (Homo sapiens, UniProt Q9UQL6)
Chain of HDAC 5 (Q9UQL6 whole entry): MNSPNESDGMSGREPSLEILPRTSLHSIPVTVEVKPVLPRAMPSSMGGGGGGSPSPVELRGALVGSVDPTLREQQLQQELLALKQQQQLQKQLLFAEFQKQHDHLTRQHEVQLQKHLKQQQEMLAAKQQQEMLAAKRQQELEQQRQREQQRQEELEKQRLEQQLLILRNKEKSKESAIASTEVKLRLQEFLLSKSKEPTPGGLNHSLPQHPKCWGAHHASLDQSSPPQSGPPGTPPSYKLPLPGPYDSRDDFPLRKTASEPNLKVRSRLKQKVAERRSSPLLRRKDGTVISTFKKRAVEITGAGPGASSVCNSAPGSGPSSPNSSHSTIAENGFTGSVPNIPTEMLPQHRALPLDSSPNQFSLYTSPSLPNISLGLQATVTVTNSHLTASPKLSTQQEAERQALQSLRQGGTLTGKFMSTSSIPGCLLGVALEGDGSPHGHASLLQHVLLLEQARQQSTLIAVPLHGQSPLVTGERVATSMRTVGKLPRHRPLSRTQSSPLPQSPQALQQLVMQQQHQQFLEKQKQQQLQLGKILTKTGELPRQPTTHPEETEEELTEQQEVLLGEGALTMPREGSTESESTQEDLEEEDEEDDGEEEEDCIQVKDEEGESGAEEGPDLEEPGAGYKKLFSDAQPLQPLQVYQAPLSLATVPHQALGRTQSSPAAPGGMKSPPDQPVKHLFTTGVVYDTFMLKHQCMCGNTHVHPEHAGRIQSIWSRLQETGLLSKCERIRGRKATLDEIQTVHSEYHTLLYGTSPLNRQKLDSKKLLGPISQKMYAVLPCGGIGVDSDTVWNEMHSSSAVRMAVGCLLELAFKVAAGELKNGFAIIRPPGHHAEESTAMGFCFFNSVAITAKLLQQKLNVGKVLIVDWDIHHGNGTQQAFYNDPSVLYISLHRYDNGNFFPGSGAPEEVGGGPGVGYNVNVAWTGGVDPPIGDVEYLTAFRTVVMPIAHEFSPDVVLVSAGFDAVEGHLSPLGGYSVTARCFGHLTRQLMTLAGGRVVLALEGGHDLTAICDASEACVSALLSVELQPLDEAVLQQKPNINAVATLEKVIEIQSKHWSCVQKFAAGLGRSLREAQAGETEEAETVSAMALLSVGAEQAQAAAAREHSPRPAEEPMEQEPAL
Experimental: as §1, §2

[5] = biological target: T3, HDAC6 (Homo sapiens, UniProt Q9UBN7)
T3 sequence (Q9UBN7 1-1215): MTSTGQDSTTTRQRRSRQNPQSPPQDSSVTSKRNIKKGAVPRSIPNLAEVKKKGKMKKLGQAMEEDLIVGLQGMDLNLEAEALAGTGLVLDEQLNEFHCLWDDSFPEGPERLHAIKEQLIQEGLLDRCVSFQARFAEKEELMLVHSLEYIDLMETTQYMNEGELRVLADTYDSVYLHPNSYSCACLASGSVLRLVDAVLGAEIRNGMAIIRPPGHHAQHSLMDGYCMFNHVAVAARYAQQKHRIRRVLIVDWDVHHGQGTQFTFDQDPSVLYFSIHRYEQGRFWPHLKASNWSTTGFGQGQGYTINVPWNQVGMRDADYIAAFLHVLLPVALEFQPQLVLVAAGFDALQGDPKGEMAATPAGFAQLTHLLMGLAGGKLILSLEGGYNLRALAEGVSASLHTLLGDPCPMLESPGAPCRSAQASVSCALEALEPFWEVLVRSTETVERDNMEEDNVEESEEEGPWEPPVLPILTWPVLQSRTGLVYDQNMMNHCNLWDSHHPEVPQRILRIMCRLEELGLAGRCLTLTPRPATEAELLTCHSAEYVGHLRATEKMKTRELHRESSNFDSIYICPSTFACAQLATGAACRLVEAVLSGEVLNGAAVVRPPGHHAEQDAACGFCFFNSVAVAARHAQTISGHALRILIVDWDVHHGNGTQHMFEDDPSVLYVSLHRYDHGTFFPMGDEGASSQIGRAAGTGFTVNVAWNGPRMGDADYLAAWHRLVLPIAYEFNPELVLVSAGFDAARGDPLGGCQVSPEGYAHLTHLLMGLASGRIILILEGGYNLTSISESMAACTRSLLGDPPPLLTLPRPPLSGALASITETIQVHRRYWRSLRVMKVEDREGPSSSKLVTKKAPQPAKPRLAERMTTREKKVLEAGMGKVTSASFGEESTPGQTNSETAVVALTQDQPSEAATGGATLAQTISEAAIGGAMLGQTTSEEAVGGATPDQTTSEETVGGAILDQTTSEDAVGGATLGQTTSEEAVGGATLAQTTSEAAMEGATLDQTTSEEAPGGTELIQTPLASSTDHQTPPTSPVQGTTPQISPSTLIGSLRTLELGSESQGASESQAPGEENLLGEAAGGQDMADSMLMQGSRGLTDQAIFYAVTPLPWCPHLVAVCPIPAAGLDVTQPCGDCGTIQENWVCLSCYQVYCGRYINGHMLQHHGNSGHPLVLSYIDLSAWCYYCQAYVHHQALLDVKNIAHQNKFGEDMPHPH
Experimental: as §1, §2

[6] = biological target: HDAC 9 (Homo sapiens, UniProt Q9UKV0)
Chain of HDAC 9 (Q9UKV0 whole entry): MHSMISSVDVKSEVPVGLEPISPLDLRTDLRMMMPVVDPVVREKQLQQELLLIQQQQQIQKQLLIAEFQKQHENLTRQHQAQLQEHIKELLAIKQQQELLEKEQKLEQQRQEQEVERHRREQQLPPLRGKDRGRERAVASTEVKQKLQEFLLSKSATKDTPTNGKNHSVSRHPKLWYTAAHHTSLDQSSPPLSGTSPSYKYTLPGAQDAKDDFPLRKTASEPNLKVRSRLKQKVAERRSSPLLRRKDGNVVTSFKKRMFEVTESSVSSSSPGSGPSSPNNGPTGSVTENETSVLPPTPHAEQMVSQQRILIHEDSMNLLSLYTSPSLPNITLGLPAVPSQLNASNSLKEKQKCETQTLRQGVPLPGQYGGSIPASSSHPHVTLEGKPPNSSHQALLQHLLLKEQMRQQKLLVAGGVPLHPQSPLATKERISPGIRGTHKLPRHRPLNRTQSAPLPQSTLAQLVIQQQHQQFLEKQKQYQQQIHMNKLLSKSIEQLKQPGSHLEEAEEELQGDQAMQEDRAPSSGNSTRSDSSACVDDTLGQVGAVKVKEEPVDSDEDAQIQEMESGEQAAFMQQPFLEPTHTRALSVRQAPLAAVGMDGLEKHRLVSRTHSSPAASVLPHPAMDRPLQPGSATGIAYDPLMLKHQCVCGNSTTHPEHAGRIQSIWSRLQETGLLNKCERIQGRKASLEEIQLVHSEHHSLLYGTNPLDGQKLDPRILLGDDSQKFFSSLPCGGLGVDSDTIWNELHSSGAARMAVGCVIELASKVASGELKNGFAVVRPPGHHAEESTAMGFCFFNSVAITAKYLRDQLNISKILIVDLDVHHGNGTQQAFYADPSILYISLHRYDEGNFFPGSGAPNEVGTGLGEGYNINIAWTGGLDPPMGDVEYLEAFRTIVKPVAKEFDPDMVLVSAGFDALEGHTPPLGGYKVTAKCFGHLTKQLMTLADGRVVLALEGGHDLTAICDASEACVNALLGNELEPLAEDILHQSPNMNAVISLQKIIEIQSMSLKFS
Experimental: as §1, §2

[7] = biological target: HDAC 3 (Homo sapiens, UniProt O15379)
Chain of HDAC 3 (O15379 whole entry): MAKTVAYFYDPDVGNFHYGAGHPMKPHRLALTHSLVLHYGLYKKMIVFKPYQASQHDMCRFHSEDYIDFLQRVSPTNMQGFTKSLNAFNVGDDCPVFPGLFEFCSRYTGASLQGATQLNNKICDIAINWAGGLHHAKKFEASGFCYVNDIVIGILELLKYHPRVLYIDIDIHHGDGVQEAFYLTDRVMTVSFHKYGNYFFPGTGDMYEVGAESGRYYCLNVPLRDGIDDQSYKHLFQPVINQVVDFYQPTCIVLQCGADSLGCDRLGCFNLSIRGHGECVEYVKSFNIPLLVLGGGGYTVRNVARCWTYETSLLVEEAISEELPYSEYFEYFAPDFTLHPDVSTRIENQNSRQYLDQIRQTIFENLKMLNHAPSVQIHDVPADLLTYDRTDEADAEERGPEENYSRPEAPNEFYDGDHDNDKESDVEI
Chain of HDAC 3 (Q9Y618 395-489 partner limits assumed): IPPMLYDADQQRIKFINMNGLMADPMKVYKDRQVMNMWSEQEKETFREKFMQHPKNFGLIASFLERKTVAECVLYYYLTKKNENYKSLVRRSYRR
Experimental: as §1, §2

[8] = biological target: HDAC1 (Homo sapiens, UniProt Q13547); test: HDAC 1 fluorogenic assay kit
Chain of HDAC1 (Q13547 whole entry): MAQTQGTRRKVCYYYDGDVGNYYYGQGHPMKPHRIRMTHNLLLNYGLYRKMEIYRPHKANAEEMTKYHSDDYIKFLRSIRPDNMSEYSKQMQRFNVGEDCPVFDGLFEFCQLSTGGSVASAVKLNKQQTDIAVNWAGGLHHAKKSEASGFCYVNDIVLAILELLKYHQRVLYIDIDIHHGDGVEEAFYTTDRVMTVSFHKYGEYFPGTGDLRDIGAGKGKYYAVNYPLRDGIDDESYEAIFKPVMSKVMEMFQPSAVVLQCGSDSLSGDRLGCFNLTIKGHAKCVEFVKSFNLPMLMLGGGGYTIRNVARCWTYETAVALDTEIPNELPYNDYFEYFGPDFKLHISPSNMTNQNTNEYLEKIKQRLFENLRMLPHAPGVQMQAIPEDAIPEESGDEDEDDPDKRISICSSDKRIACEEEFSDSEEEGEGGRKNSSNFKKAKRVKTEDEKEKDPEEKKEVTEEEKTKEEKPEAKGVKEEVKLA
Experimental: as §1, §2

[9] = biological target: HDAC 4 (Homo sapiens, UniProt P56524); test: HDAC 4 fluorogenic assay kit
Chain of HDAC 4 (P56524 whole entry): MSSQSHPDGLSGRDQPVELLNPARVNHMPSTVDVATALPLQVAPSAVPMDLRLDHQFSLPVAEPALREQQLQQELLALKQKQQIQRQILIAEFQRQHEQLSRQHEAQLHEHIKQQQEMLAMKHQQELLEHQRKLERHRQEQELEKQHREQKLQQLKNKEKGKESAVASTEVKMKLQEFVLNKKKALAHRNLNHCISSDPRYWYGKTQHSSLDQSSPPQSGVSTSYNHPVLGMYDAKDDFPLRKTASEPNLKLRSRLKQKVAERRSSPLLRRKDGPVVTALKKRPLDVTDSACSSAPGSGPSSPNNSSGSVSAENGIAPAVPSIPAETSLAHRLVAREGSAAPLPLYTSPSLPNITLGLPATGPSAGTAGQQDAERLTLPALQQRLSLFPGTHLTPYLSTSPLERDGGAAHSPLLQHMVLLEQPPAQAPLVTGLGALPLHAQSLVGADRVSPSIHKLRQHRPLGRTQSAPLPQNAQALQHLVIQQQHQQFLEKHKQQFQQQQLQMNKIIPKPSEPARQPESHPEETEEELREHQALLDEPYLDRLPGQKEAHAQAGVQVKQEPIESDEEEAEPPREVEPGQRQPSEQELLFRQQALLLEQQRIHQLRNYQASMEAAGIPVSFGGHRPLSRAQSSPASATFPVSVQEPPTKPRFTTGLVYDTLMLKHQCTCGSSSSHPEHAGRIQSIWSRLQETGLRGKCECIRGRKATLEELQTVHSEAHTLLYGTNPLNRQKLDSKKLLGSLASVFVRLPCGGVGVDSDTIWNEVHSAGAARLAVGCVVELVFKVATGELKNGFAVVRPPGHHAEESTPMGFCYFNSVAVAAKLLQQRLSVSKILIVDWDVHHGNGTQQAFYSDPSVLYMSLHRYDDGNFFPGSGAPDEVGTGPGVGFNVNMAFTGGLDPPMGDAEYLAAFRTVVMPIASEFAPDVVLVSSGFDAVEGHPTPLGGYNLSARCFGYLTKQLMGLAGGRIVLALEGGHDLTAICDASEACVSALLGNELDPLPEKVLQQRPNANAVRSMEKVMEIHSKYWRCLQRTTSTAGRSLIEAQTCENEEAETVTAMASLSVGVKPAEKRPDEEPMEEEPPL
Experimental: as §1, §2

Compound	HDAC 11 activity, % of water-treated controls ([1]; 50 ug/ml) [%]	HDAC 11 activity, % of water-treated controls ([1]; 100 ug/ml) [%]	HDAC 11 activity, % of water-treated controls ([1]; 200 ug/ml) [%]	HDAC 2 activity, % of water-treated controls ([3]; 50 ug/ml) [%]	HDAC 2 activity, % of water-treated controls ([3]; 100 ug/ml) [%]	HDAC 2 activity, % of water-treated controls ([3]; 200 ug/ml) [%]	HDAC 5 activity, % of water-treated controls ([4]; 50 ug/ml) [%]	HDAC 5 activity, % of water-treated controls ([4]; 100 ug/ml) [%]	HDAC 5 activity, % of water-treated controls ([4]; 200 ug/ml) [%]	HDAC 6 activity, % of water-treated controls ([5]; 50 ug/ml) [%]	HDAC 6 activity, % of water-treated controls ([5]; 100 ug/ml) [%]	HDAC 6 activity, % of water-treated controls ([5]; 200 ug/ml) [%]	HDAC 9 activity, % of water-treated controls ([6]; 50 ug/ml) [%]	HDAC 9 activity, % of water-treated controls ([6]; 100 ug/ml) [%]	HDAC 9 activity, % of water-treated controls ([6]; 200 ug/ml) [%]	other results
CCCC(=O)N[C@@H](CC(C)C)C(=O)[O-].CCCC(=O)N[C@@H](CC(C)C)C(=O)[O-].[Zn+2] [Zn di-(n-butyryl leucinate), Zinc di-(n-butyryl leucinate)]	93	71	39	37	31	28	91	50	26	21	20	17	44	30	22	HDAC 11 activity, % of water-treated controls ([1]; 5 ug/ml): 102%; HDAC 11 activity, % of water-treated controls ([1]; 25 ug/ml): 100%; MAGL IC50 [2]: 88.3 µg/mL; HDAC 2 activity, % of water-treated controls ([3]; 25 ug/ml): 39%; HDAC 5 activity, % of water-treated controls ([4]; 25 ug/ml): 128%; HDAC 6 activity, % of water-treated controls ([5]; 5 ug/ml): 20%; HDAC 6 activity, % of water-treated controls ([5]; 25 ug/ml): 20%; HDAC 9 activity, % of water-treated controls ([6]; 5 ug/ml): 15%; HDAC 9 activity, % of water-treated controls ([6]; 25 ug/ml): 49%
CCCC(=O)[O-].[Na+] [Sodium butyrate, reference compound]	89	87	84	89	93	94	38	26	15	107	110	92	55	53	57	HDAC 11 activity, % of water-treated controls ([1]; 400 ug/ml): 91%; IC50 [2]: 5.5 mM; HDAC 2 activity, % of water-treated controls ([3]; 400 ug/ml): 95%; HDAC 3 activity, % of water-treated controls ([7]; 50 ug/ml): 98%; HDAC 3 activity, % of water-treated controls ([7]; 100 ug/ml): 82%; HDAC 3 activity, % of water-treated controls ([7]; 200 ug/ml): 60%; HDAC 3 activity, % of water-treated controls ([7]; 400 ug/ml): 49%; HDAC 5 activity, % of water-treated controls ([4]; 400 ug/ml): 11%; HDAC 6 activity, % of water-treated controls ([5]; 400 ug/ml): 102%; HDAC 9 activity, % of water-treated controls ([6]; 400 ug/ml): 58%; HDAC 1 activity, % of water-treated controls ([8]; 50 ug/ml): 109%; HDAC 1 activity, % of water-treated controls ([8]; 100 ug/ml): 46%; HDAC 1 activity, % of water-treated controls ([8]; 200 ug/ml): 39%; HDAC 1 activity, % of water-treated controls ([8]; 400 ug/ml): 38%; HDAC 4 activity, % of water-treated controls ([9]; 25 ug/ml): 93%; HDAC 4 activity, % of water-treated controls ([9]; 50 ug/ml): 96%; HDAC 4 activity, % of water-treated controls ([9]; 100 ug/ml): 96%
